pIC50: −log10 of the molar value.
System: 233499-124-R-J3-PDC complex spheroid growth
Test: Anticancer human tumor 233499-124-R-J3-PDC patient-derived colon adenocarcinoma cell line growth inhibition [AhR]
Conditions: for pIC50: curve of first compound; for viability, T/C: stronger effect = lower value
How it was run: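 Agents were dosed in half-log steps down from roughly clinical Cmax, or from 10 microM where Cmax was unknown, alone and with AhR antagonists. Read-out: percent test/control growth of tumor spheroids containing HUVEC and MSC stromal cells.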

[1] = second compound 0.1 µM, first compound 0.0316 µM
[2] = second compound 0.1 µM, first compound 0.1 µM
[3] = second compound 0.1 µM, first compound 0.316 µM
[4] = second compound 0.1 µM, first compound 1 µM
[5] = second compound 0.1 µM, first compound 3.16 µM
[6] = second compound 0.1 µM, first compound 10 µM
[7] = second compound 0.316 µM, first compound 0.0316 µM
[8] = second compound 0.316 µM, first compound 0.1 µM
[9] = second compound 0.316 µM, first compound 0.316 µM
[10] = second compound 0.316 µM, first compound 1 µM
[11] = second compound 0.316 µM, first compound 3.16 µM
[12] = second compound 0.316 µM, first compound 10 µM
[13] = second compound 1 µM, first compound 0.0316 µM
[14] = second compound 1 µM, first compound 0.1 µM
[15] = second compound 1 µM, first compound 0.316 µM
[16] = second compound 1 µM, first compound 1 µM
[17] = second compound 1 µM, first compound 3.16 µM
[18] = second compound 1 µM, first compound 10 µM
[19] = second compound 3.16 µM, first compound 0.0316 µM
[20] = second compound 3.16 µM, first compound 0.1 µM
[21] = second compound 3.16 µM, first compound 0.316 µM
[22] = second compound 3.16 µM, first compound 1 µM
[23] = second compound 3.16 µM, first compound 3.16 µM
[24] = second compound 3.16 µM, first compound 10 µM
[25] = second compound 10 µM, first compound 0.0316 µM
[26] = second compound 10 µM, first compound 0.1 µM
[27] = second compound 10 µM, first compound 0.316 µM
[28] = second compound 10 µM, first compound 1 µM
[29] = second compound 10 µM, first compound 3.16 µM
[30] = second compound 10 µM, first compound 10 µM
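Further: spheroids exposed to agents for seven days before reading.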

SMILES: Nc1ccccc1NC(=O)c1ccc(CNC(=O)OCc2cccnc2)cc1 + Cc1cncc(-c2nc(NCCc3c[nH]c4ccccc34)c3ncn(C(C)C)c3n2)c1
- pIC50 (second compound 0.1 µM): 5.37
- pIC50 (second compound 0.316 µM): 5.58
- pIC50 (second compound 1 µM): 5.75
- pIC50 (second compound 3.16 µM): 5.83
- pIC50 (second compound 10 µM): > 7.50
- viability, T/C [1]: 89.4%
- viability, T/C [2]: 99.9%
- viability, T/C [3]: 92.6%
- viability, T/C [4]: 106%
- viability, T/C [5]: 65.9%
- viability, T/C [6]: 4.68%
- viability, T/C [7]: 93.8%
- viability, T/C [8]: 90%
- viability, T/C [9]: 80.7%
- viability, T/C [10]: 109%
- viability, T/C [11]: 41.3%
- viability, T/C [12]: 2.94%
- viability, T/C [13]: 80.4%
- viability, T/C [14]: 84.8%
- viability, T/C [15]: 71.9%
- viability, T/C [16]: 93.9%
- viability, T/C [17]: 17.1%
- viability, T/C [18]: 1.34%
- viability, T/C [19]: 74%
- viability, T/C [20]: 77.7%
- viability, T/C [21]: 78.6%
- viability, T/C [22]: 74.6%
- viability, T/C [23]: 4.12%
- viability, T/C [24]: 0.26%
- viability, T/C [25]: 7.14%
- viability, T/C [26]: 7.87%
- viability, T/C [27]: 7.4%
- viability, T/C [28]: 1.13%
- viability, T/C [29]: 0.78%
- viability, T/C [30]: 0.29%

SMILES: O=C(C=Cc1cccc(S(=O)(=O)Nc2ccccc2)c1)NO + Cc1cncc(-c2nc(NCCc3c[nH]c4ccccc34)c3ncn(C(C)C)c3n2)c1
- pIC50 (second compound 0.1 µM): 5.28
- pIC50 (second compound 0.316 µM): 5.24
- pIC50 (second compound 1 µM): 5.26
- pIC50 (second compound 3.16 µM): 5.51
- pIC50 (second compound 10 µM): > 7.50
- viability, T/C [1]: 103%
- viability, T/C [2]: 96.8%
- viability, T/C [3]: 111%
- viability, T/C [4]: 122%
- viability, T/C [5]: 82%
- viability, T/C [6]: 9.95%
- viability, T/C [7]: 84.6%
- viability, T/C [8]: 98.7%
- viability, T/C [9]: 94.4%
- viability, T/C [10]: 105%
- viability, T/C [11]: 107%
- viability, T/C [12]: 5.83%
- viability, T/C [13]: 84.6%
- viability, T/C [14]: 97.7%
- viability, T/C [15]: 88.8%
- viability, T/C [16]: 103%
- viability, T/C [17]: 95.5%
- viability, T/C [18]: 1.53%
- viability, T/C [19]: 78.6%
- viability, T/C [20]: 78.2%
- viability, T/C [21]: 80.8%
- viability, T/C [22]: 93.2%
- viability, T/C [23]: 49.4%
- viability, T/C [24]: 3.18%
- viability, T/C [25]: 7.06%
- viability, T/C [26]: 6.48%
- viability, T/C [27]: 7.01%
- viability, T/C [28]: 2.38%
- viability, T/C [29]: 1.78%
- viability, T/C [30]: 0.38%

SMILES: O=C(c1cc(Cc2n[nH]c(=O)c3ccccc23)ccc1F)N1CCN(C(=O)C2CC2)CC1 + Cc1cncc(-c2nc(NCCc3c[nH]c4ccccc34)c3ncn(C(C)C)c3n2)c1
- pIC50 (second compound 0.1 µM): < 5.00
- pIC50 (second compound 0.316 µM): < 5.00
- pIC50 (second compound 1 µM): < 5.00
- pIC50 (second compound 3.16 µM): < 5.00
- pIC50 (second compound 10 µM): > 7.50
- viability, T/C [1]: 115%
- viability, T/C [2]: 105%
- viability, T/C [3]: 100%
- viability, T/C [4]: 102%
- viability, T/C [5]: 98.6%
- viability, T/C [6]: 105%
- viability, T/C [7]: 106%
- viability, T/C [8]: 99.3%
- viability, T/C [9]: 96.3%
- viability, T/C [10]: 95.5%
- viability, T/C [11]: 103%
- viability, T/C [12]: 92.3%
- viability, T/C [13]: 87.5%
- viability, T/C [14]: 97.2%
- viability, T/C [15]: 93.9%
- viability, T/C [16]: 71.5%
- viability, T/C [17]: 87.5%
- viability, T/C [18]: 86%
- viability, T/C [19]: 74.8%
- viability, T/C [20]: 86.4%
- viability, T/C [21]: 76.3%
- viability, T/C [22]: 83.6%
- viability, T/C [23]: 85.9%
- viability, T/C [24]: 90.1%
- viability, T/C [25]: 5.45%
- viability, T/C [26]: 6.91%
- viability, T/C [27]: 19.4%
- viability, T/C [28]: 16.2%
- viability, T/C [29]: 8.78%
- viability, T/C [30]: 19.1%

Source: PubChem BioAssay AID1918993 (Molecular Pharmacology Branch, DTP, NCI, 2023)
